Laboratory results as given in US20100267561A1, “HERBICIDAL PYRIDAZINONE DERIVATIVES” (priority 2007, published 2010).
Like-named read-outs stand apart in the source and are kept apart here.

How the values were obtained:
Experiment in all cases: Test B pre-/postemergence plant response
Assay type in all cases: in vivo
[1] = test system: green foxtail (Setaria viridis); details: for pest or weed control at 31 g/ha: 31 g ai/ha; for pest or weed control at 62 g/ha: 62 g ai/ha, 100 complete control
Procedure, shortened: (§1)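 Visual scoring from 0 (no effect) to 100 (complete control) against untreated controls was done 13 to 15 days after greenhouse treatment. Chemicals were formulated in a surfactant-containing non-phytotoxic solvent and applied to soil preemergence or to 1- to 4-leaf (2-18 cm) plants postemergence.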

[2] = test system: yellow nutsedge (Cyperus esculentus); details: for pest or weed control at 31 g/ha / pest or weed control at 62 g/ha: Cyperus, read-out: Plant response rating, Nutsedge, Yellow; for pest or weed control at 31 g/ha: 31 g ai/ha; for pest or weed control at 62 g/ha: 62 g ai/ha, 100 complete control
Procedure, shortened: as §1

[3] = test system: eastern black (E.B.) nightshade (Solanum ptycanthum); details: Preemergence
Procedure, shortened: as §1

[4] = test system: common (oilseed) sunflower (Helianthus annuus); details: Preemergence
Procedure, shortened: as §1

[5] = test system: Russian thistle (Salsola iberica); details: Preemergence
Procedure, shortened: as §1

[6] = test system: cocklebur (Xanthium strumarium); details: for pest or weed control at 31 g/ha: 31 g ai/ha; for pest or weed control at 62 g/ha: 62 g ai/ha, 100 complete control
Procedure, shortened: as §1

corn (Zea mays) = details: for Corn plant response rating (crop injury, 0 = no effect, 100 = complete kill) at 31 g/ha: 31 g ai/ha; for Corn plant response rating (crop injury, 0 = no effect, 100 = complete kill) at 62 g/ha: 62 g ai/ha, 100 complete control
Procedure, shortened: as §1

wild oat (Avena fatua) = details: for Oat, Wild plant response rating: postemergence, 0-100 scale; for pest or weed control at 31 g/ha / pest or weed control at 62 g/ha: Avena fatua, read-out: Plant response rating, Oat, Wild; for pest or weed control at 31 g/ha: 31 g ai/ha; for pest or weed control at 62 g/ha: 62 g ai/ha, 100 complete control
Procedure, shortened: as §1

[7] = 8 g ai/ha, postemergence, 0-100 scale
[8] = Preemergence, 8 g ai/ha, scale 0 to 100 (0 no effect, 100 complete control)
[9] = Preemergence, 16 g ai/ha, scale 0 to 100
[10] = post-emergence, Postemergence, scale 0 to 100
[11] = post-emergence, Postemergence, scale 0 to 100, 0 no effect
[12] = pre-emergence, Preemergence, scale 0 to 100 (0 no effect, 100 complete control)
[13] = pre-emergence, Preemergence, 0 to 100 scale, 0 no effect
[14] = 8 g ai/ha, scale 0 to 100 (0 no effect, 100 complete control)

SMILES: Cc1nn(C)c(=O)c(-c2nc(-c3ccc(Cl)cc3)sc2C)c1O [Compound 79, 4-[2-(4-chlorophenyl)-5-methyl-4-thiazolyl]-5-hydroxy-2,6-dimethyl-3(2H)-pyridazinone]
- Foxtail, Green plant response rating [1, 7]: 75
- Foxtail, Green plant response rating [1, 8]: 30
- Foxtail, Green plant response rating [1, 9]: 60
- pest or weed control at 16 g/ha ([1]; Setaria viridis, post-emergence, Postemergence, 16 g ai/ha, scale 0 to 100, read-out: Plant response rating, Foxtail, Green): 85%
- pest or weed control at 31 g/ha ([1]; Setaria viridis, post-emergence, Postemergence, scale 0 to 100, read-out: Plant response rating, Foxtail, Green): 98%
- pest or weed control at 62 g/ha ([1]; Setaria viridis, post-emergence, Postemergence, scale 0 to 100, 0 no effect, read-out: Plant response rating, Foxtail, Green): 98%
- pest or weed control at 31 g/ha ([1]; Setaria viridis, pre-emergence, Preemergence, scale 0 to 100 (0 no effect, 100 complete control), read-out: Plant response rating, Foxtail, Green): 98%
- pest or weed control at 62 g/ha ([1]; Setaria viridis, pre-emergence, Preemergence, 0 to 100 scale, 0 no effect, read-out: Plant response rating, Foxtail, Green): 100%
- Nutsedge, Yellow plant response rating [2, 7]: 0
- Nutsedge, Yellow plant response rating ([2]; 16 g ai/ha, postemergence, 0-100 scale): 0
- pest or weed control at 31 g/ha [2, 10]: 0%
- pest or weed control at 62 g/ha [2, 11]: 0%
- pest or weed control at 31 g/ha [2, 12]: 0%
- pest or weed control at 62 g/ha [2, 13]: 0%
- Nutsedge, Yellow plant response rating [2, 8]: 0
- Nutsedge, Yellow plant response rating [2, 9]: 0
- Nightshade, E. B. plant response rating [3, 14]: 0
- Nightshade, E. B. plant response rating ([3]; 16 g ai/ha, scale 0 to 100): 0
- pest or weed control at 62 g/ha ([3]; Solanum, pre-emergence, 62 g ai/ha, 0 to 100 scale, 0 no effect, 100 complete control, read-out: Plant response rating, Nightshade, E. B.): 0%
- pest or weed control at 31 g/ha ([4]; Helianthus annuus, pre-emergence, 31 g ai/ha, scale 0 to 100 (0 no effect, 100 complete control), read-out: Plant response rating, Sunflower): 0%
- pest or weed control at 62 g/ha ([4]; Helianthus annuus, pre-emergence, 62 g ai/ha, 0 to 100 scale, 0 no effect, 100 complete control, read-out: Plant response rating, Sunflower): 0%
- Sunflower plant response rating [4, 14]: 0
- Sunflower plant response rating ([4]; 16 g ai/ha, scale 0 to 100): 0
- Russian Thistle plant response rating [5, 14]: 0
- Plant response rating, Russian Thistle ([5]; 31 g ai/ha, scale 0 to 100 (0 no effect, 100 complete control)): 0
- Plant response rating, Russian Thistle ([5]; 62 g ai/ha, 0 to 100 scale, 0 no effect, 100 complete control): 0
- Russian Thistle plant response rating ([5]; 16 g ai/ha, scale 0 to 100): 0
- Cocklebur plant response rating [6, 7]: 0
- Cocklebur plant response rating [6, 8]: 0
- Cocklebur plant response rating [6, 9]: 0
- pest or weed control at 16 g/ha ([6]; Xanthium strumarium, post-emergence, Postemergence, 16 g ai/ha, scale 0 to 100, read-out: Plant response rating, Cocklebur): 0%
- pest or weed control at 31 g/ha ([6]; Xanthium strumarium, post-emergence, Postemergence, scale 0 to 100, read-out: Plant response rating, Cocklebur): 0%
- pest or weed control at 62 g/ha ([6]; Xanthium strumarium, post-emergence, Postemergence, scale 0 to 100, 0 no effect, read-out: Plant response rating, Cocklebur): 0%
- pest or weed control at 31 g/ha ([6]; Xanthium strumarium, pre-emergence, Preemergence, scale 0 to 100 (0 no effect, 100 complete control), read-out: Plant response rating, Cocklebur): 0%
- pest or weed control at 62 g/ha ([6]; Xanthium strumarium, pre-emergence, Preemergence, 0 to 100 scale, 0 no effect, read-out: Plant response rating, Cocklebur): 0%
- Corn plant response rating (corn (Zea mays); [7]): 0
- Corn plant response rating (corn (Zea mays); [8]): 0
- Corn plant response rating (corn (Zea mays); [9]): 0
- Corn plant response rating (crop injury, 0 = no effect, 100 = complete kill) at 16 g/ha (corn (Zea mays); Zea mays, post-emergence, Postemergence, 16 g ai/ha, scale 0 to 100): 0%
- Corn plant response rating (crop injury, 0 = no effect, 100 = complete kill) at 31 g/ha (corn (Zea mays); Zea mays, post-emergence, Postemergence, scale 0 to 100): 20%
- Corn plant response rating (crop injury, 0 = no effect, 100 = complete kill) at 62 g/ha (corn (Zea mays); Zea mays, post-emergence, Postemergence, scale 0 to 100, 0 no effect): 35%
- Corn plant response rating (crop injury, 0 = no effect, 100 = complete kill) at 31 g/ha (corn (Zea mays); Zea mays, pre-emergence, Preemergence, scale 0 to 100 (0 no effect, 100 complete control)): 50%
- Corn plant response rating (crop injury, 0 = no effect, 100 = complete kill) at 62 g/ha (corn (Zea mays); Zea mays, pre-emergence, Preemergence, 0 to 100 scale, 0 no effect): 100%
- Oat, Wild plant response rating (wild oat (Avena fatua); 8 g ai/ha): 30
- Oat, Wild plant response rating (wild oat (Avena fatua); 16 g ai/ha): 45
- pest or weed control at 31 g/ha (wild oat (Avena fatua); [10]): 60%
- pest or weed control at 62 g/ha (wild oat (Avena fatua); [11]): 98%
- pest or weed control at 31 g/ha (wild oat (Avena fatua); [12]): 70%
- pest or weed control at 62 g/ha (wild oat (Avena fatua); [13]): 95%
